Values belong to the molecule of their own block, whether it stands above or below them.
Key:
[1] = molecular target: casein kinase 1 epsilon (CK1 epsilon) (Homo sapiens (Human), UniProt P49674); assay: Test A: inhibitory activity on CK1 epsilon, casein phosphorylation assay on ATP-33P filter plate; format: biochemical; details: IC50 values or IC50 ranges (result of several experiments), ATP 10 μM final
Procedure, shortened: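 Human CK1 epsilon (3 ng/μL final) phosphorylates dephosphorylated casein (0.2 μg/μL) with ATP-33P plus 10 μM cold ATP (KM for ATP 21 μM), 2 h at room temperature, pH 7.5 Tris buffer. TCA-precipitated protein counted by scintillation; compounds at 10 to 0.001 μM give IC50 values or % inhibition at 10 μM.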

Sequence of casein kinase 1 epsilon (CK1 epsilon) (P49674 whole entry): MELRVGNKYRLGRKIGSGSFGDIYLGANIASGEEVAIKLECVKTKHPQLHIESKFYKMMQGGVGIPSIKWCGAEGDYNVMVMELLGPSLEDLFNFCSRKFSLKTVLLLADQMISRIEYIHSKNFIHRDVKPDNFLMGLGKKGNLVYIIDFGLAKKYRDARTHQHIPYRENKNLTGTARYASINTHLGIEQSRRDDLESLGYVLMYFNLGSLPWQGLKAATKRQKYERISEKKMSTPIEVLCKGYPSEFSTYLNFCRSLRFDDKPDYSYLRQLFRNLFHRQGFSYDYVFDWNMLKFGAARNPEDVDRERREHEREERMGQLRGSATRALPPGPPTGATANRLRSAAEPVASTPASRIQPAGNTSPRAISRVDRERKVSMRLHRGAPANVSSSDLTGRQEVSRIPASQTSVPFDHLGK

SMILES: NC(=O)c1c(-c2cccc(C(F)(F)F)c2)c(Cl)n2c1CN(C(=O)NC1CCOCC1)CC2 [Compound 96, 6-chloro-N^2-(tetrahydro-2H-pyran-4-yl)-7-[3-(trifluoromethyl)phenyl]-3,4-dihydropyrrolo[1,2-a]pyrazine-2,8(1H)-dicarboxamide]
IC50 [1]: 19 nM
melting point: 220 to 222 °C

SMILES: N#Cc1c(-c2cccc(F)c2)c(C(N)=O)c2n1CCN(C(=O)NC1CCC(F)(F)CC1)C2 [Compound 110, 6-cyano-N^2-(4,4-difluoro-cyclohexyl)-7-(3-fluorophenyl)-3,4-dihydropyrrolo[1,2-a]pyrazine-2,8(1H)-dicarboxamide]
IC50 [1]: < 1 nM
melting point: 237 to 240 °C

SMILES: CC(C)(C)NC(=O)N1CCn2c(Br)c(-c3cccc(F)c3)c(C(N)=O)c2C1 [Compound 104, 6-bromo-7-(3-fluorophenyl)-N^2-tert-butyl-3,4-dihydropyrrolo[1,2-a]pyrazine-2,8(1H)-dicarboxamide]
IC50 [1]: < 1 nM
melting point: 184 to 189 °C

SMILES: CC(C)(CO)CNC(=O)N1CCn2c(Cl)c(-c3cccc(C(F)(F)F)c3)c(C(N)=O)c2C1 [Compound 74, 6-chloro-N^2-(3-hydroxy-2,2-dimethylpropyl)-7-(3-trifluoromethyl-phenyl)-3,4-dihydropyrrolo[1,2-a]pyrazine-2,8(1H)-dicarboxamide]
IC50 [1]: 6 nM
melting point: 185 to 187 °C

SMILES: NC(=O)c1c(-c2cccc(F)c2)c(Cl)n2c1CN(C(=O)N[C@H]1CC[C@H](O)CC1)CC2 [Compound 83, trans-6-chloro-7-(3-fluorophenyl)-N^2-(4-hydroxy-cyclo-hexyl)-3,4-dihydropyrrolo[1,2-a]pyrazine-2,8(1H)-dicarboxamide]
IC50 [1]: 2 to 4 nM
melting point: 251 to 253 °C

SMILES: COc1ccc(-c2c(C(N)=O)c3n(c2C2CC2)CCN(C(=O)NC24CC5CC(CC(C5)C2)C4)C3)cc1 [Compound 55, N^2-(adamantan-1-yl)-6-cyclo-propyl-7-(4-methoxyphenyl)-3,4-dihydropyrrolo[1,2-a]pyrazine-2,8(1H)-dicarboxamide]
IC50 [1]: 3 to 5 nM
melting point: 224 to 226 °C

SMILES: C[C@H](NC(=O)N1CCn2c(C#N)c(-c3cccc(F)c3)c(C(N)=O)c2C1)C(F)(F)F [Compound 106, 6-cyano-7-(3-fluorophenyl)-N^2-((2S)-1,1,1-trifluoropropan-2-yl)-3,4-dihydropyrrolo[1,2-a]pyrazine-2,8(1H)-dicarboxamide]
IC50 [1]: 2 nM
melting point: 176 to 178 °C

SMILES: COc1ccc(-c2c(C(N)=O)c3n(c2C2CC2)CCN(C(=O)NC2(C4CC4)CC2)C3)cc1 [Compound 51, N^2-[1,1′-bi(cyclo-propyl)-1-yl]-6-cyclo-propyl-7-(4-methoxyphenyl)-3,4-dihydropyrrolo[1,2-a]pyrazine-2,8(1H)-dicarboxamide]
IC50 [1]: 40 nM
melting point: 175 to 177 °C

SMILES: NC(=O)c1c(-c2ccccc2)c(Cl)n2c1CN(C(=O)NC1CCCCC1)CC2 [Compound 82, 6-chloro-N^2-cyclo-hexyl-7-phenyl-3,4-dihydropyrrolo[1,2-a]pyrazine-2,8(1H)-dicarboxamide]
IC50 [1]: 1 to 7 nM
melting point: 208 to 209 °C

SMILES: COc1ccc(-c2c(C(N)=O)c3n(c2C2CC2)CCN(C(=O)NC24CC5CC(CC2C5)C4)C3)cc1 [Compound 53, 6-cyclo-propyl-N^2-(hexahydro-2,5-methanopentalen-3a(1H)-yl)-7-(4-methoxyphenyl)-3,4-dihydropyrrolo[1,2-a]pyrazine-2,8(1H)-dicarboxamide]
IC50 [1]: 7 nM
melting point: 216 to 219 °C

SMILES: CC(C)(C)NC(=O)N1CCn2c(F)c(-c3ccccc3)c(C(N)=O)c2C1 [Compound 58, N^2-tert-butyl-6-fluoro-7-phenyl-3,4-dihydropyrrolo[1,2-a]pyrazine-2,8(1H)-dicarboxamide]
IC50 [1]: 5 to 28 nM
melting point: 213 to 215 °C

Further lines, results first:

IC50 [1]: 122 nM
melting point: 203 to 205 °C
SMILES: NC(=O)c1c(-c2cccc(OC(F)(F)F)c2)c(Cl)n2c1CN(C(=O)NC1CCOCC1)CC2 [Compound 97, 6-chloro-N^2-(tetrahydro-2H-pyran-4-yl)-7-[3-(trifluoromethoxy)phenyl]-3,4-dihydropyrrolo[1,2-a]pyrazine-2,8(1H)-dicarboxamide]

IC50 [1]: 10 to 27 nM
melting point: 210 to 213 °C
SMILES: NC(=O)c1c(-c2ccccc2)c(Cl)n2c1CN(C(=O)NCC(F)(F)F)CC2 [Compound 76, 6-chloro-7-phenyl-N^2-(2,2,2-trifluoroethyl)-3,4-dihydropyrrolo[1,2-a]pyrazine-2,8(1H)-dicarboxamide]

IC50 [1]: 21 to 28 nM
melting point: 227 to 229 °C
SMILES: NC(=O)c1c(-c2ccccc2)c(Cl)n2c1CN(C(=O)NC1CCOCC1)CC2 [Compound 93, 6-chloro-7-phenyl-N^2-(tetrahydro-2H-pyran-4-yl)-3,4-dihydropyrrolo[1,2-a]pyrazine-2,8(1H)-dicarboxamide]

IC50 [1]: 38 nM
melting point: 203 to 206 °C
SMILES: CC(C)(C)NC(=O)N1CCn2c(c(C(N)=O)c(-c3ccc(OCc4ccccc4)cc3)c2C2CC2)C1 [Compound 40, 7-[4-(benzyloxy)phenyl]-N^2-tert-butyl-6-cyclo-propyl-3,4-dihydropyrrolo[1,2-a]pyrazine-2,8(1H)-dicarboxamide]

IC50 [1]: 1 nM
melting point: > 217 °C
SMILES: CC(C)(C)NC(=O)N1CCn2c(C#N)c(-c3cccc(F)c3)c(C(N)=O)c2C1 [Compound 105, 6-cyano-7-(3-fluorophenyl)-N^2-(tert-butyl)-3,4-dihydropyrrolo[1,2-a]pyrazine-2,8(1H)-dicarboxamide]

IC50 [1]: 11 to 13 nM
melting point: 181 to 185 °C
SMILES: NC(=O)c1c(-c2ccccc2)c(Cl)n2c1CN(C(=O)NC1CCOC1)CC2 (stereo not shown) [Compound 92, 6-chloro-7-phenyl-N^2-(tetrahydrofuran-3-yl)-3,4-dihydropyrrolo[1,2-a]pyrazine-2,8(1H)-dicarboxamide]

IC50 [1]: 45 to 146 nM
melting point: 220 to 223 °C
SMILES: CC(C)(C)NC(=O)N1CCn2c(c(C(N)=O)c(-c3ccc(F)cc3)c2C2CC2)C1 [Compound 47, N^2-tert-butyl-6-cyclo-propyl-7-(4-fluorophenyl)-3,4-dihydropyrrolo[1,2-a]pyrazine-2,8(1H)-dicarboxamide]

IC50 [1]: 4 to 5 nM
melting point: 204 to 206 °C
SMILES: NC(=O)c1c(-c2cccc(F)c2)c(Cl)n2c1CN(C(=O)NCC1(CO)CC1)CC2 [Compound 75, 6-chloro-7-(3-fluorophenyl)-N^2-{[1-(hydroxymethyl)cyclo-propyl]methyl}-3,4-dihydropyrrolo[1,2-a]pyrazine-2,8(1H)-dicarboxamide]

IC50 [1]: 4 to 36 nM
melting point: 157 to 159 °C
SMILES: CC(C)(C)NC(=O)N1CCn2c(c(C(N)=O)c(-c3ccc(Oc4ccccc4)cc3)c2C2CC2)C1 [Compound 39, N^2-tert-butyl-6-cyclo-propyl-7-(4-phenoxyphenyl)-3,4-dihydropyrrolo[1,2-a]pyrazine-2,8(1H)-dicarboxamide]

IC50 [1]: 4 nM
melting point: 169 to 171 °C
SMILES: N#Cc1c(-c2cccc(F)c2)c(C(N)=O)c2n1CCN(C(=O)NCCCC(F)(F)F)C2 [Compound 108, 6-cyano-7-(3-fluorophenyl)-N^2-(4,4,4-trifluoro-butyl)-3,4-dihydropyrrolo[1,2-a]pyrazine-2,8(1H)-dicarboxamide]

IC50 [1]: 4 nM
melting point: 249 to 253 °C
SMILES: CC1(CNC(=O)N2CCn3c(Cl)c(-c4cccc(F)c4)c(C(N)=O)c3C2)COC1 [Compound 91, 6-chloro-7-(3-fluorophenyl)-N^2-(3-methyl-oxetan-3-ylmethyl)-3,4-dihydropyrrolo[1,2-a]pyrazine-2,8(1H)-dicarboxamide]

IC50 [1]: 2 to 8 nM
melting point: 208 to 213 °C
SMILES: NC(=O)c1c(-c2cccc(F)c2)c(Cl)n2c1CN(C(=O)NCC(F)(F)F)CC2 [Compound 77, 6-chloro-7-(3-fluorophenyl)-N^2-(2,2,2-trifluoroethyl)-3,4-dihydropyrrolo[1,2-a]pyrazine-2,8(1H)-dicarboxamide]

IC50 [1]: 1 to 2 nM
melting point: 192 to 195 °C
SMILES: CC(C)(C)NC(=O)N1CCn2c(Cl)c(-c3cccc(C#N)c3)c(C(N)=O)c2C1 [Compound 65, N^2-tert-butyl-6-chloro-7-(3-cyanophenyl)-3,4-dihydropyrrolo[1,2-a]pyrazine-2,8(1H)-dicarboxamide]

IC50 [1]: 2 to 16 nM
melting point: 119 to 124 °C
SMILES: NC(=O)c1c(-c2cccc(F)c2)c(Cl)n2c1CN(C(=O)NCCC(F)(F)F)CC2 [Compound 80, 6-chloro-7-(3-fluorophenyl)-N^2-(3,3,3-trifluoropropyl)-3,4-dihydropyrrolo[1,2-a]pyrazine-2,8(1H)-dicarboxamide]

IC50 [1]: 1 to 5 nM
melting point: 196 to 198 °C
SMILES: CC(C)(C)NC(=O)N1CCn2c(Cl)c(-c3cccc(F)c3)c(C(N)=O)c2C1 [Compound 67, N^2-tert-butyl-6-chloro-7-(3-fluorophenyl)-3,4-dihydropyrrolo[1,2-a]pyrazine-2,8(1H)-dicarboxamide]
